Results: paper PMC9459017, “Pharmacokinetic and pharmacodynamic similarity evaluation between an insulin glargine biosimilar product and Lantus® in healthy subjects: Pharmacokinetic parameters of both parent insulin glargine and M1 were used as endpoints” (Frontiers in Pharmacology, 2022)

Experiments:
[1] = design: species or system human; details: in vivo, sc; for Tmax of the parent insulin glargine: human
Excerpt: This PK/PD comparative study was a randomized, double-blind, single-dose, two-treatment, four-period, replicate crossover, euglycemic clamp study. Subjects were randomly assigned to one of two dosing sequences and received 0.4 U/kg reference drug on two occasions and 0.4 U/kg test drug on two occasions. The dosing nurses were not blind to the treatment allocation, whereas the subjects and the clamping operators (who adjusted the glucose infusion rate) were blinded. Subjects were admitted to the clinical research unit on the night before each period. On day 1 of each period, all doses of test and reference drug were administered by subcutaneous injection, and then, subjects underwent a euglycemic clamp procedure until 24 h post-dose. There was a washout period of 10–14 days between study periods. The test drug, manufactured by Wanbang Biopharmaceuticals, was supplied as a 100 U/ml solution in 3 ml cartridges. The reference drug was procured commercially as cartridges. The test drug or reference drug was administrated by subcutaneous injection using a pen about 5 cm from the left or right side of the umbilicus, as a 0.4 U/kg dose. In each period, serial blood samples for the quantification of insulin glargine, its metabolites (M1 and M2), and C-peptide were collected at 30 min prior to dosing and 0, 1, 3, 5, 6, 7, 8, 9, 10, 11, 12, 13, 14, 16, 18, 21, and 24 h after dose using vacuum tubes with an EDTA anticoagulant. Concentrations of insulin glargine and its metabolites (M1 and M2) in plasma were simultaneously quantified by an ultra-high-performance liquid chromatography tandem mass spectrometry (UHPLC-MS/MS) method developed and fully validated before the clinical sample analysis. […] Pharmacokinetic parameters were calculated with WinNonlin Version 8.2 (Pharsight Corporation, Mountain View, California, United States) using a non-compartmental analysis method. […] Time to reach Cmax (Tmax) was also calculated. […]

healthy volunteers [2] = test: 24 h euglycemic clamp, glucose infusion rate (pharmacodynamics); format: in vivo, human; details: single 0.4 U/kg s.c., N = 38; for AUCGIR(0–24 h), geometric mean / Time to GIRmax / AUCGIR(0–12 h), geometric mean / AUCGIR(12–24 h), geometric mean / GIRmax, geometric mean: healthy volunteers; for AUCGIR(0–24 h), geometric mean: 24 h euglycemic clamp 0.3 mmol/L below fasting glucose; for AUCGIR(0–24 h), geometric mean / AUCGIR(0–12 h), geometric mean / AUCGIR(12–24 h), geometric mean / GIRmax, geometric mean: raw GIR not smoothed; for Time to GIRmax / AUCGIR(0–12 h), geometric mean / AUCGIR(12–24 h), geometric mean / GIRmax, geometric mean: 24 h euglycemic clamp; for Time to GIRmax: median (range); for AUCGIR(0–12 h), intra-subject variability / AUCGIR(0–24 h), intra-subject variability / AUCGIR(12–24 h), intra-subject variability / GIRmax, intra-subject variability: replicate crossover
Excerpt: This PK/PD comparative study was a randomized, double-blind, single-dose, two-treatment, four-period, replicate crossover, euglycemic clamp study. Subjects were randomly assigned to one of two dosing sequences and received 0.4 U/kg reference drug on two occasions and 0.4 U/kg test drug on two occasions. The dosing nurses were not blind to the treatment allocation, whereas the subjects and the clamping operators (who adjusted the glucose infusion rate) were blinded. Subjects were admitted to the clinical research unit on the night before each period. On day 1 of each period, all doses of test and reference drug were administered by subcutaneous injection, and then, subjects underwent a euglycemic clamp procedure until 24 h post-dose. There was a washout period of 10–14 days between study periods. For each subject, the 24 h euglycemic clamp procedure aimed to maintain the clamp value at 0.3 mmol/L below the subject’s mean fasting glucose level in each period. Each subject began fasting from 20:00 on the day prior to dosing in each period and continued fasting during the clamp study. Body weight and vital signs were measured after the bladder was emptied, and the clamp study was performed after resting for at least 30 min. One upper limb was cannulated for the infusion of glucose (20% dextrose solution in water). The contralateral upper limb was cannulated for PK blood sample collection and blood glucose concentration measurement. Blood glucose level was measured by using an automatic blood glucose analyzer every 20 min from 0 to 3.0 h, every 10 min from 3.0 to 12.0 h, every 15 min from 12.0 to 16.0 h, every 30 min from 16.0 to 21.0 h, and every 15 min from 21.0 to 24.0 h. After each glucose measurement, the glucose infusion rate (GIR) was manually adjusted by the operator based on the experience of the change rate of blood glucose to maintain the blood glucose concentration within ±10% of the clamp target. During the entire procedure, subjects should stay awake, decumbent, or semi-decumbent as much as possible and relieve themselves in time with the help of medical staff. PD parameters were calculated with WinNonlin Version 8.2 using the trapezoidal rule. Raw GIR profiles were not smoothed before calculation of PD parameters. Area under the glucose infusion rate–time curve (AUCGIR(0–24 h)) and peak of glucose infusion rate (GIRmax) were measured as primary endpoints. Partial area under the glucose infusion rate–time curve (AUCGIR(0–12 h) and AUCGIR(12–24 h)) was the secondary PD parameter. Another meaningful PD endpoint was time to GIRmax. The primary and secondary PD parameters, AUCGIR(0–24 h), GIRmax, AUCGIR(0–12 h), and AUCGIR(12–24 h), were log transformed prior to analysis. The same linear mixed-effects model as PK comparison was used for the PD comparison. For each PD parameter, the difference in geometric means along with the 90% CIs was back transformed to produce the ratio of geometric means and the CI comparing the test drug to reference drug. PD similarity was to be concluded if the […] for both primary and secondary PD parameters were contained within the interval of 80.00%–125.00%. Intra-subject and inter-subject variability were reported for each primary and secondary PD parameters.

endogenous insulin = test: Plasma C-peptide reduction during clamp (suppression of endogenous insulin); format: in vivo, human; details: single 0.4 U/kg s.c., healthy volunteers, plasma C-peptide by ELISA during 24 h clamp, mean ± SD
Description: In each period, serial blood samples for the quantification of insulin glargine, its metabolites (M1 and M2), and C-peptide were collected at 30 min prior to dosing and 0, 1, 3, 5, 6, 7, 8, 9, 10, 11, 12, 13, 14, 16, 18, 21, and 24 h after dose using vacuum tubes with an EDTA anticoagulant.
C-peptide in plasma was quantified by a fully validated enzyme-linked immunosorbent assay (ELISA) method, of which the calibration range was 28.9–925 pmol/L.
C-peptide concentration was measured in parallel to insulin concentrations throughout the experiment to compare the extent and consistency of suppression of endogenous insulin between the two drugs.
The quality of the performance of the clamp study was estimated from two aspects. On one hand, the blood glucose level during the entire clamping process was evaluated by calculating the mean difference between the blood glucose concentration and the clamp target, mean square deviation, and coefficient of variation of the blood glucose concentrations. On the other hand, the plasma C-peptide concentration profiles and the ratio of C-peptide reduction were evaluated.

healthy subjects = test: Safety assessment in healthy subjects; details: single 0.4 U/kg s.c. doses, healthy male subjects
Description: Prior to dose and at various time points post-dose and post-study, assessments of safety and tolerability were conducted by monitoring adverse events (AEs), vital signs, physical examinations, laboratory tests (hematology, blood biochemistry, urinalysis, and coagulation function), and 12-lead ECG.

[3] = acidic pH; precipitates in the subcutaneous tissue after injection to form a depot; ref Levien et al., 2002; cited from earlier work
Excerpt: Then, the drug is slowly released from the depot. […] These observed phenomena are consistent with those of a previous study ([Bolli et al., 2012]). Based on the comparison ...

[4] = Matrix stability of insulin glargine in whole blood and plasma; format: in vitro ADME; details: human whole blood and plasma; addressed by strict temperature control and EDTA anticoagulant during sample collection and pre-treatment
Excerpt: The bioanalytical method applied in this study was with a relatively higher sensitivity of 75.0 pg/ml for the parent insulin glargine ([Bhatia et al., 2018]; [Crutchlow et al., 2018]). The instability of the insulin glargine in whole blood and plasma was addressed by strict temperature control and selection of EDTA anticoagulant during sample collection and pre-treatment. […] After subcutaneous injection, the concentrations of parent insulin glargine increased to a relatively high level within 3 h, and then, a relatively flat concentration–time profile lasting for at least 12 h post-dose was observed, which implied a prolonged absorption of insulin glargine.

healthy volunteers [5] = test: 24 h euglycemic clamp, glucose infusion rate (pharmacodynamics); format: in vivo, human; details: single 0.4 U/kg s.c., linear mixed-effects model, N = 38

Substance | Tmax of the parent insulin glargine [1] | AUCGIR(0–24 h), geometric mean (healthy volunteers [2]) [mg/kg/min·h] | Time to GIRmax (healthy volunteers [2]) | AUCGIR(0–12 h), geometric mean (healthy volunteers [2]) [mg/kg/min·h] | AUCGIR(12–24 h), geometric mean (healthy volunteers [2]) [mg/kg/min·h] | GIRmax, geometric mean (healthy volunteers [2]) [mg/kg/min] | AUCGIR(0–12 h), intra-subject variability (healthy volunteers [2]) [%] | AUCGIR(0–24 h), intra-subject variability (healthy volunteers [2]) [%] | AUCGIR(12–24 h), intra-subject variability (healthy volunteers [2]) [%] | GIRmax, intra-subject variability (healthy volunteers [2]) [%] | Ratio of C-peptide reduction (endogenous insulin) | Clinically significant changes in vital signs, physical examinations, laboratory tests or 12-lead ECG (healthy subjects) | Safety profiles with regard to AEs (healthy subjects) | Duration of relatively flat concentration–time profile post-dose [1] | Solubility [3] | Stability in whole blood and plasma [4] | AUCGIR(0–12 h), ratio of geometric means test/reference (healthy volunteers [5]) [%] | AUCGIR(0–24 h), ratio of geometric means test/reference (healthy volunteers [5]) [%] | AUCGIR(12–24 h), ratio of geometric means test/reference (healthy volunteers [5]) [%] | GIRmax, ratio of geometric means test/reference (healthy volunteers [5]) [%]
Lantus [Reference drug] | 3 (1,16) h | 34.4 | 11.8 (4, 19.0) | 13.45 | 21.19 | 2.54 | 39.0 | 28.3 | 20.2 | 25.5 | 57.5% ± 14.4 | no changes | comparable | – | – | – | – | – | – | –
insulin glargine | – | – | – | – | – | – | – | – | – | – | – | – | – | at least 12 h | soluble at an acidic pH | instability | – | – | – | –
recombinant insulin glargine [Test drug] | 8 (1,16) h | 36.3 | 12.3 (3.85, 21.5) | 13.52 | 22.45 | 2.66 | 70.7 | 36.4 | 27.3 | 26.5 | 56.5% ± 14.1 | – | – | – | – | – | 100.52 | 105.41 | 105.91 | 105.00
